Assay [1] has as its target T1, ERα (Homo sapiens, UniProt P03372).
T1 sequence (P03372 1-595): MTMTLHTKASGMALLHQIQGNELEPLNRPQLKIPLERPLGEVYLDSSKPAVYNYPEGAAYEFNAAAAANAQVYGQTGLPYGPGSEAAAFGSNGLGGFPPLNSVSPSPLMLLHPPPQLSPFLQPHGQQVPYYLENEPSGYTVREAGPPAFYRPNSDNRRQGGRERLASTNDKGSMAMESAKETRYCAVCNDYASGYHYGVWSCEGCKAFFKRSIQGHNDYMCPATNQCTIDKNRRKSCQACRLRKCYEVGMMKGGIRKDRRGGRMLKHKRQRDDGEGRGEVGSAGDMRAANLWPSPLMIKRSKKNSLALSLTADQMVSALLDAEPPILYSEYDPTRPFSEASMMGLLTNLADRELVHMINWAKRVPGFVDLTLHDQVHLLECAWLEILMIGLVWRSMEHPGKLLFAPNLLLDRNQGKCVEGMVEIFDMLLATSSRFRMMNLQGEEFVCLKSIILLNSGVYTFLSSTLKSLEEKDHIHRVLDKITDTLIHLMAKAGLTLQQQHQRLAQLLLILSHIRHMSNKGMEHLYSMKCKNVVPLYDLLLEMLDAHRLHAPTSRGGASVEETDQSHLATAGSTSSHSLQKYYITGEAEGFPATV
Put plainly: Luciferase reporter gene assay (transactivation), U2OS cells transfected with pSG5-ERα. Format: cell-based. The settings on record: inhibition of E2-induced (0.03 nM) transactivation. For orientation: Reporter assays use an easily measured gene product as a stand-in for the process of interest.

Assay [2] has as its target T2, ERβ (Homo sapiens, UniProt Q92731). The experiment in a line: Luciferase reporter gene assay (transactivation), U2OS cells transfected with pSG5-ERβ. It counts as cell-based. Conditions: inhibition of E2-induced (0.3 nM) transactivation.
Target sequence in this assay (Q92731 whole entry): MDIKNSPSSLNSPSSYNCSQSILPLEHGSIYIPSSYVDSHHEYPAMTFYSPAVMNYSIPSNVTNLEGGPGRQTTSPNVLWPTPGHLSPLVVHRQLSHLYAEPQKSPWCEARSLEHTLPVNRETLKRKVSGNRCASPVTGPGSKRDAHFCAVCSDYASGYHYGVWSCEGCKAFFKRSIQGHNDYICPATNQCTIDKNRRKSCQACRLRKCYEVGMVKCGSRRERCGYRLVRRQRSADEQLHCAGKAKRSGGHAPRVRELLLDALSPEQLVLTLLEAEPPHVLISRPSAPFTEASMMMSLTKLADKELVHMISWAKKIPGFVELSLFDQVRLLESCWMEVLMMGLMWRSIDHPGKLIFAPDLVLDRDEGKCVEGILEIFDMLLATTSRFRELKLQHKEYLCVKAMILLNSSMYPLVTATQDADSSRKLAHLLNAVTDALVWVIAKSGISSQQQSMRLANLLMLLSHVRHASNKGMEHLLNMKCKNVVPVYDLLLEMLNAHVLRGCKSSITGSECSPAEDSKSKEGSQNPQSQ
The target in assay [3] is T1, ERα. The experiment in a line: In-Cell Western immunoassay, ERα levels in MCF-7 cells. Conditions: for Emax at 1 µM: MCF7, read-out: % efficacy [1 μM], downregulation of ERα compared to fulvestrant (100%), MCF-7, 1 μM; for % ERα remaining [1 μM]: MCF-7 cells, 24 h, compared to the solvent control (DMSO). Format: cell-based.
Protocol: Degradation was evaluated with the CellTagTM 700 In-Cell Western kit (LI-COR, Lincoln) according to the manufacturer’s protocol. MCF-7 cells were treated, and calculation was performed as previously described.[24]
Assay [4] addresses T3, ERα (Homo sapiens, UniProt P03372).
T3 sequence (P03372 311-547 limits assumed): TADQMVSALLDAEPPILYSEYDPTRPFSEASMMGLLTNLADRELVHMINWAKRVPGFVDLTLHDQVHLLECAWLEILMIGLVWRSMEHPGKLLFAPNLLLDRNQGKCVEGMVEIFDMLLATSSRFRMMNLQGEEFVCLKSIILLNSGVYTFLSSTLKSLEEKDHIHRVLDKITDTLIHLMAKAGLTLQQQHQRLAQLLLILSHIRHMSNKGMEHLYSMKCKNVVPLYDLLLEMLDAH
Conditions: for IC50: read-out: TR-FRET ERα IC50, displacement of fluorescent-labeled E2 from the LBD of ERα; for RBA ERα: relative binding affinity compared to E2 (100%). In general terms: In TR-FRET formats the signal depends on donor and acceptor labels being close together.
Protocol: (§1) LanthaScreen TR-FRET ER alpha/beta competitive binding assays (Invitrogen, Carlsbad) were used to investigate the binding affinity to the isolated receptors according to the manufacturer′s protocols. Measurement was performed with an Enspire multimode plate reader (PerkinElmer Life Sciences, Waltham). Calculations were performed with Excel (Microsoft, Redmond) and GraphPad Prism (GraphPad Software, San Diego).

Assay [5] addresses T2, ERβ. Conditions: for IC50: read-out: TR-FRET ERβ IC50, displacement of fluorescent-labeled E2 from the LBD of ERβ; for RBA ERβ: relative binding affinity compared to E2 (100%).
Target sequence in this assay (Q92731 264-498 limits assumed): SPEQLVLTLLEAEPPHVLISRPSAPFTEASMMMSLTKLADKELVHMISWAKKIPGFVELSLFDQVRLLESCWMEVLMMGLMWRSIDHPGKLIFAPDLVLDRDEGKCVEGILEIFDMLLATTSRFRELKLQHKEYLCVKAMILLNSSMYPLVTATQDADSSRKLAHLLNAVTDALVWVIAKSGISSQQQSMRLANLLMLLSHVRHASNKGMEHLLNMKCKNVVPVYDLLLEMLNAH
Protocol: as §1
The target of assay [6] is T3, ERα. The experiment in a line: TR-FRET coactivator (PGC-1 peptide) recruitment assay, ERα LBD. Format: biochemical. The settings on record: E2 4 nM, read-out: inhibition of coactivator recruitment IC50, ERα.
Protocol: drug concentrations: 5 nM to 3 μM) after an incubation time of 10 or 30 min.
Coactivator recruitment was tested using the LanthaScreen® TR-FRET ERα coactivator assay. The binding
of the fluorescein-labeled PGC1a coactivator peptide to the ERα LBD protein labeled with terbium was
Assay [7] concerns the target T2, ERβ. The settings on record: read-out: inhibition of coactivator recruitment IC50, ERβ; E2 34 nM, incubation time 30 min.
Target sequence in this assay (Q92731 whole entry): as the sequence (Q92731 whole entry) above
For the next assay, the system named is MCF-7TamR cells. Put plainly: Crystal violet assay, MCF-7TamR cells. Format: cell-based.
The subject of the next assay is MCF-7 cells. The experiment in a line: Crystal violet assay, MCF-7 cells. Conditions: for time to cytocidal effects, MCF-7: time-dependent experiment. It counts as cell-based.
Another assay deals with MDA-MB-231 cells. Put plainly: Crystal violet assay, MDA-MB-231 cells. It counts as cell-based.

Read-outs that look alike come from different tables or passages of the source.

Broadly, the IC50 is the concentration at which inhibition is half-maximal.

As to `CCC(=C(c1ccc(O)cc1)c1ccc(/C=C/C(=O)NCCCNC(=O)c2ccc(N3CCN(C(=O)CCCCCCCn4c(=S)[nH]c5ccccc5c4=O)CC3)cc2)cc1)c1ccccc1` (mixture of isomers) [Compound 18], the IC50 was found to be 914 ± 50 nM against ERα [1], 157 ± 22 nM against ERβ [2], 4.23 ± 1.12 nM on ERα [4] and 6.81 ± 1.86 nM on ERβ [5]. Besides, the Emax at 1 µM at ERα [3] was 64%. Also, on ERα [4], the “RBA ERα” value is given as 7.8%. Moreover, the “RBA ERβ” value at ERβ [5] is on record as 10.9%.

For the compound `CCC(=C(c1ccc(O)cc1)c1ccc(/C=C/C(=O)NCCNC(=O)CCc2nc3cc(OC)ccc3[nH]2)cc1)c1ccccc1` (mixture of isomers) [Compound 31, (E)-3-[4-((E/Z)-1-(4-Hydroxyphenyl)-2-phenylbut-1-enyl)phenyl]-N-[2-(3-(5-methoxy-1H-benzo[d]imidazol-2-yl)propanamido)ethyl]acrylamide], the midpoint of inhibition against ERβ [2], the IC50, lay at 6.7 ± 2.7 nM. Also, the “% ERα remaining [1 μM]” value at ERα [3] amounted to 113.8 ± 4.3%. Besides, the “RBA ERα” value at ERα [4] was found to be 12%. Further, at ERβ [5], the IC50 was determined as 4.88 ± 2.65 nM and the “RBA ERβ” value is 15.2%.

As for `CCC(=C(c1ccc(O)cc1)c1ccc(/C=C/C(=O)NCCCNC(=O)CCc2nc3ccc(OC)cc3[nH]2)cc1)c1ccccc1` (mixture of isomers) [Compound 32, (E)-3-[4-((E/Z)-1-(4-Hydroxyphenyl)-2-phenylbut-1-enyl)phenyl]-N-[3-(3-(5-methoxy-1H-benzo[d]imidazol-2-yl)propanamido)propyl]acrylamide], the IC50 is 21.5 ± 10.7 nM on ERα [1], 26.9 ± 5.7 nM against ERβ [2], 4.11 ± 1.88 nM on ERα [4] and 3.01 ± 4 nM on ERβ [5]. The “% ERα remaining [1 μM]” value on ERα [3] was found to be 120.3 ± 31.6%. The “RBA ERα” value on ERα [4] amounted to 8%. The “RBA ERβ” value at ERβ [5] came to 24.7%.

As for `CCC(=C(c1ccc(O)cc1)c1ccc(/C=C/C(=O)NCCCCNC(=O)CCc2nc3cc(OC)ccc3[nH]2)cc1)c1ccccc1` (mixture of isomers) [Compound 34, (E)-3-[4-((E/Z)-1-(4-Hydroxyphenyl)-2-phenylbut-1-enyl)phenyl]-N-[4-(3-(5-methoxy-1H-benzo[d]imidazol-2-yl)propanamido)butyl]acrylamide], the IC50 against ERα [1] came out at 34.5 ± 3.5 nM. The “% ERα remaining [1 μM]” value at ERα [3] is 132.9 ± 14.1%. On ERα [4], the IC50 was determined as 2.22 ± 0.76 nM and the “RBA ERα” value was determined as 14.9%.

For `CCC(=C(c1ccc(O)cc1)c1ccc(/C=C/C(=O)NCCCCCNC(=O)CCc2nc3ccc(OC)cc3[nH]2)cc1)c1ccccc1` (mixture of isomers) [Compound 36, (E)-3-[4-((E/Z)-1-(4-Hydroxyphenyl)-2-phenylbut-1-enyl)phenyl]-N-[5-(3-(5-methoxy-1H-benzo[d]imidazol-2-yl)propanamido)pentyl]acrylamide], the half-maximal inhibitory concentration (IC50) at ERα [6] (incubation time 10 min) stood at 36.3 nM; at ERα [6] (incubation time 30 min), 153 nM; against ERα [1] it was 9.2 ± 3.2 nM; on ERβ [2], 8.9 ± 4 nM; at ERα [4] it was 1.56 ± 0.63 nM; on ERβ [5] it was 7.84 ± 0.25 nM. Also, the IC50 at ERβ [7] was found to be 154 nM. Also, the “% ERα remaining [1 μM]” value on ERα [3] is 130.0 ± 15.1%. For the same compound, on ERα [4], the “RBA ERα” value was 21.1%. Further, the “RBA ERβ” value on ERβ [5] is listed as 9.5%.

On to `CCC(=C(c1ccc(O)cc1)c1ccc(/C=C/C(=O)NCCCCCCNC(=O)CCc2nc3cc(OC)ccc3[nH]2)cc1)c1ccccc1` (mixture of isomers) [Compound 38, (E)-3-[4-((E/Z)-1-(4-Hydroxyphenyl)-2-phenylbut-1-enyl)phenyl]-N-[6-(3-(5-methoxy-1H-benzo[d]imidazol-2-yl)propanamido)hexyl]acrylamide], for which the IC50 on ERα [1] is 9.4 ± 2.7 nM; against ERβ [2], 9 ± 3.3 nM; on ERα [4], 2.61 ± 2.25 nM; on ERβ [5], 5.22 ± 0.65 nM. Further, the “% ERα remaining [1 μM]” value at ERα [3] was found to be 101.8 ± 1.9%. Moreover, the “T/Ccorr MCF-7TamR” value in the assay on MCF-7TamR cells is “about 40%”. The “RBA ERα” value at ERα [4] was 12.6%. The “RBA ERβ” value at ERβ [5] was 14.3%.

As for `CCC(=C(c1ccc(O)cc1)c1ccc(/C=C/C(=O)NCCNC(=O)CCc2nc3cc(O)ccc3[nH]2)cc1)c1ccccc1` (mixture of isomers) [Compound 39, (E)-N-[2-(3-(5-Hydroxy-1H-benzo[d]imidazol-2-yl)propanamido)ethyl]-3-[4-((E/Z)-1-(4-hydroxyphenyl)-2-phenylbut-1-enyl)phenyl]acrylamide], on ERα [1], the IC50 turned out to be 26 ± 6.6 nM. In addition, on ERα [3], the Emax at 1 µM amounted to 1% and the “% ERα remaining [1 μM]” value is reported as 99.2 ± 3.5%. In addition, at ERα [4], the IC50 was found to be 1.45 ± 0.37 nM and the “RBA ERα” value is on record as 22.8%.

Regarding `CCC(=C(c1ccc(O)cc1)c1ccc(/C=C/C(=O)NCCCNC(=O)CCc2nc3cc(O)ccc3[nH]2)cc1)c1ccccc1` (mixture of isomers) [Compound 40, (E)-N-[3-(3-(5-Hydroxy-1H-benzo[d]imidazol-2-yl)propanamido)propyl]-3-[4-((E/Z)-1-(4-hydroxyphenyl)-2-phenylbut-1-enyl)phenyl]acrylamide], on ERβ [2], the IC50 came to 18.7 ± 8.3 nM. At ERβ [5], the half-maximal inhibitory concentration (IC50) amounted to 3.78 ± 1.54 nM and the “RBA ERβ” value worked out at 19.7%.

For the compound `CCC(=C(c1ccc(O)cc1)c1ccc(/C=C/C(=O)NCCCCNC(=O)CCc2nc3cc(O)ccc3[nH]2)cc1)c1ccccc1` (mixture of isomers) [Compound 41, (E)-N-[4-(3-(5-Hydroxy-1H-benzo[d]imidazol-2-yl)propanamido)butyl]-3-[4-((E/Z)-1-(4-hydroxyphenyl)-2-phenylbut-1-enyl)phenyl]acrylamide], the IC50 against ERβ [2] came to 15.9 ± 1.7 nM. At ERβ [5], the IC50 is 2.84 ± 1.31 nM and the “RBA ERβ” value stood at 26.2%.

Regarding `CCC(=C(c1ccc(O)cc1)c1ccc(/C=C/C(=O)NCCCCCNC(=O)CCc2nc3cc(O)ccc3[nH]2)cc1)c1ccccc1` (mixture of isomers) [Compound 42, (E)-N-[5-(3-(5-Hydroxy-1H-benzo[d]imidazol-2-yl)propanamido)pentyl]-3-[4-((E/Z)-1-(4-hydroxyphenyl)-2-phenylbut-1-enyl)phenyl]acrylamide], the IC50 on ERα [6] (incubation time 10 min) worked out at 23.3 nM; against ERα [1] it was 30.9 ± 8.7 nM; against ERβ [2], 46.5 ± 20.7 nM; on ERα [4], 1.28 ± 0.58 nM; on ERβ [5], 3.81 ± 2.35 nM; on ERβ [7], 64 nM. On ERα [3], the Emax at 1 µM was determined as 8%. The “% ERα remaining [1 μM]” value at ERα [3] was 92.0 ± 5.5%. Also, the “RBA ERα” value at ERα [4] is reported as 25.7%. Also, the “RBA ERβ” value on ERβ [5] was determined as 19.5%.

The compound `CCC(=C(c1ccc(O)cc1)c1ccc(/C=C/C(=O)NCCCCCCNC(=O)CCc2nc3cc(O)ccc3[nH]2)cc1)c1ccccc1` (mixture of isomers) [Compound 43, (E)-N-[6-(3-(5-Hydroxy-1H-benzo[d]imidazol-2-yl)propanamido)hexyl]-3-[4-((E/Z)-1-(4-hydroxyphenyl)-2-phenylbut-1-enyl)phenyl]acrylamide] yielded an IC50 against ERβ [2] of 16.1 ± 7 nM. At ERβ [5], the IC50 came out at 7.8 ± 2.3 nM and the “RBA ERβ” value was determined as 9.5%.

Turning to `CC/C(=C(\c1ccc(O)cc1)c1ccc(OCCN(C)C)cc1)c1ccccc1` [4-OHT, (Z)-4-hydroxytamoxifen], the “T/Ccorr MCF-7” value in the assay with MCF-7 cells (10 μM, 120 h) was −55%. The “time to cytocidal effects, MCF-7” value in the assay with MCF-7 cells (10 μM) is recorded as 48 h; in the assay with MCF-7 cells (20 μM), 24 h. Also, the “T/Ccorr MCF-7TamR” value in the assay on MCF-7TamR cells (10 μM, 120 h) is given as −57%. Moreover, the “T/Ccorr MDA-MB-231” value in the assay on MDA-MB-231 cells (10 μM, 120 h) came out at 10%. Also, in the assay on MDA-MB-231 cells (20 μM, time-dependent experiment), the “time to cytocidal effects, MDA-MB-231” value was 24 h.

With `C[C@]12CC[C@@H]3c4ccc(O)cc4C[C@@H](CCCCCCCCC[S+]([O-])CCCC(F)(F)C(F)(F)F)[C@H]3[C@@H]1CC[C@@H]2O` (stereo partly drawn) [fulvestrant, reference compound], the “RBA ERβ” value on ERβ [5] was 10.0%.

The values above are taken from PMC8279417 (Journal of Medicinal Chemistry, 2021).
